Assays:
[1] = molecular target: T1, Bifunctional epoxide hydrolase 2 (Mus musculus, UniProt P34914); assay: Inhibition of recombinant mouse soluble epoxide hydrolase using PHOME as substrate assessed as 6-methoxynaphthaldehyde product formation preincubated with compound for 10 mins followed by substrate addition and measured by fluorescence based analysis
T1 sequence (P34914 whole entry): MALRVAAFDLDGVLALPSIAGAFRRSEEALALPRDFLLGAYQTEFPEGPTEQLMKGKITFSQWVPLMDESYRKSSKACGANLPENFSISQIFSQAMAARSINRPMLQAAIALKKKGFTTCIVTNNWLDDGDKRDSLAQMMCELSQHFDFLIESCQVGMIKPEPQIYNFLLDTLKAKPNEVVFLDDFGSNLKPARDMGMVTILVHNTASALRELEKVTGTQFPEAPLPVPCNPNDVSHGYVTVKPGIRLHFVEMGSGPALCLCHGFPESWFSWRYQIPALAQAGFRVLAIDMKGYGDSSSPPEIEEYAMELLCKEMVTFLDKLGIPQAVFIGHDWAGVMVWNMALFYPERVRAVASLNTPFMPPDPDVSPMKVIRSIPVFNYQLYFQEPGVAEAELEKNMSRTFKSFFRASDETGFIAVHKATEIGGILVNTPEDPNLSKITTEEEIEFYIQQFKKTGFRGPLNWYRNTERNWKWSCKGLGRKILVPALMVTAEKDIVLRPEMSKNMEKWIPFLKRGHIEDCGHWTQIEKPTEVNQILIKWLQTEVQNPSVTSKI

[2] = molecular target: T2, Bifunctional epoxide hydrolase 2 (Homo sapiens, UniProt P34913); assay: Inhibition of recombinant human soluble epoxide hydrolase using PHOME as substrate assessed as 6-methoxynaphthaldehyde product formation preincubated with compound for 10 mins followed by substrate addition and measured by fluorescence based analysis
T2 sequence (P34913 whole entry): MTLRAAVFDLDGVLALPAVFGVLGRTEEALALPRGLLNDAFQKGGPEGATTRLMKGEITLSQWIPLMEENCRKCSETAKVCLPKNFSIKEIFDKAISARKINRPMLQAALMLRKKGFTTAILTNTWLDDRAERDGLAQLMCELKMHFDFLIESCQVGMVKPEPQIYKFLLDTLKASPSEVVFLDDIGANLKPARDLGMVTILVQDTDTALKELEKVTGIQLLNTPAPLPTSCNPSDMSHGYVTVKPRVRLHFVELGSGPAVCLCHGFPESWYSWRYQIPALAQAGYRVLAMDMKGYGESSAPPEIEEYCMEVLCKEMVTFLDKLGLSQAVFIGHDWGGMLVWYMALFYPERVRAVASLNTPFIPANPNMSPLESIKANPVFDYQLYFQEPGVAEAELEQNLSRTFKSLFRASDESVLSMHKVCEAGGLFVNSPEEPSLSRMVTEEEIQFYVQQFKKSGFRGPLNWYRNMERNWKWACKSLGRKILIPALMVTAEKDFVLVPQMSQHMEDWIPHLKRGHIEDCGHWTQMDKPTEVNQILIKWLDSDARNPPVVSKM

[3] = Metabolic stability in human liver microsomes assessed as half-life measured upto 60 mins in the presence of NADPH generating system by HPLC analysis; assay type: ADME, Microsome; conditions: 1 h
[4] = Metabolic stability in Sprague-Dawley rat liver microsomes assessed as half-life measured upto 60 mins in the presence of NADPH generating system by HPLC analysis; assay type: ADME, Microsome; conditions: 1 h
[5] = Protein binding in Sprague-Dawley rat plasma by equilibrium dialysis; assay type: ADME, cell-free
[6] = Microsomal stability in human liver microsomes assessed as mean compound concentration measured after 10 mins in the presence of NADPH-generating system by HPLC analysis (Rvb= 100 ug/ml); assay type: ADME, Microsome
[7] = Microsomal stability in human liver microsomes assessed as mean compound concentration measured after 30 mins in the presence of NADPH-generating system by HPLC analysis (Rvb= 100 ug/ml); assay type: ADME, Microsome; conditions: 0.5 h
[8] = Microsomal stability in human liver microsomes assessed as mean compound concentration measured after 60 mins in the presence of NADPH-generating system by HPLC analysis (Rvb= 100 ug/ml); assay type: ADME, Microsome; conditions: 1 h
[9] = Microsomal stability in Sprague-Dawley rat liver microsomes assessed as mean compound concentration measured after 10 mins in the presence of NADPH-generating system by HPLC analysis (Rvb= 100 ug/ml); assay type: ADME, Microsome
[10] = Microsomal stability in Sprague-Dawley rat liver microsomes assessed as mean compound concentration measured after 30 mins in the presence of NADPH-generating system by HPLC analysis (Rvb= 100 ug/ml); assay type: ADME, Microsome; conditions: 0.5 h
[11] = Microsomal stability in Sprague-Dawley rat liver microsomes assessed as mean compound concentration measured after 60 mins in the presence of NADPH-generating system by HPLC analysis (Rvb= 100 ug/ml); assay type: ADME, Microsome; conditions: 1 h
[12] = Tmax in Sprague-Dawley rat at 10 mg/kg, iv administered as single dose and measured upto 8 hrs by HPLC analysis; assay type: ADME, organism-based; conditions: in vivo
[13] = Cmax in Sprague-Dawley rat at 10 mg/kg, iv administered as single dose and measured upto 8 hrs by HPLC analysis; assay type: ADME, organism-based; design: time < 8 hrs, dose 10 mg/kg, route iv; conditions: in vivo
[14] = Half-life in Sprague-Dawley rat at 10 mg/kg, iv administered as single dose and measured upto 8 hrs by HPLC analysis; assay type: ADME, organism-based; conditions: in vivo
[15] = Clearance in Sprague-Dawley rat at 10 mg/kg, iv administered as single dose and measured upto 8 hrs by HPLC analysis; assay type: ADME, organism-based; conditions: in vivo
[16] = Apparent volume of distribution in Sprague-Dawley rat at 10 mg/kg, iv administered as single dose and measured upto 8 hrs by HPLC analysis; assay type: ADME, organism-based; conditions: in vivo
[17] = AUC (0 to 8 hrs) in Sprague-Dawley rat at 10 mg/kg, iv administered as single dose and measured upto 8 hrs by HPLC analysis; assay type: ADME, organism-based; design: time < 8 hrs, dose 10 mg/kg, route iv; conditions: in vivo
[18] = AUC (0 to infinity) in Sprague-Dawley rat at 10 mg/kg, iv administered as single dose and measured upto 8 hrs by HPLC analysis; assay type: ADME, organism-based; design: dose 10 mg/kg, time < 8 hrs, route iv; conditions: in vivo
[19] = Tmax in Sprague-Dawley rat at 50 mg/kg, po administered as single dose and measured upto 8 hrs by HPLC analysis; assay type: ADME, organism-based; conditions: in vivo
[20] = Cmax in Sprague-Dawley rat at 50 mg/kg, po administered as single dose and measured upto 8 hrs by HPLC analysis; assay type: ADME, organism-based; design: time < 8 hrs, dose 50 mg/kg, route po; conditions: in vivo
[21] = Half-life in Sprague-Dawley rat at 50 mg/kg, po administered as single dose and measured upto 8 hrs by HPLC analysis; assay type: ADME, organism-based; conditions: in vivo
[22] = Clearance in Sprague-Dawley rat at 50 mg/kg, po administered as single dose and measured upto 8 hrs by HPLC analysis; assay type: ADME, organism-based; conditions: in vivo
[23] = Apparent volume of distribution in Sprague-Dawley rat at 50 mg/kg, po administered as single dose and measured upto 8 hrs by HPLC analysis; assay type: ADME, organism-based; conditions: in vivo
[24] = AUC (0 to 8 hrs) in Sprague-Dawley rat at 50 mg/kg, po administered as single dose and measured upto 8 hrs by HPLC analysis; assay type: ADME, organism-based; design: dose 50 mg/kg, time < 8 hrs, route po; conditions: in vivo
[25] = AUC (0 to infinity) in Sprague-Dawley rat at 50 mg/kg, po administered as single dose and measured upto 8 hrs by HPLC analysis; assay type: ADME, organism-based; design: time < 8 hrs, dose 50 mg/kg, route po; conditions: in vivo
[26] = Oral bioavailability in Sprague-Dawley rat at 50 mg/kg administered as single dose and measured upto 8 hrs by HPLC analysis; assay type: ADME, organism-based; conditions: in vivo
[27] = Toxicity in mouse assessed as tolerance by measuring adverse events at 200 mg/kg, po administered for 7 days; assay type: organism-based; conditions: in vivo, 168 h, time 7 day
[28] = Toxicity in mouse assessed as effect on body weight at 200 mg/kg, po administered for 7 days; assay type: organism-based; conditions: in vivo, 168 h, time 7 day
Mus musculus [29] = assay: Anti-inflammatory activity in L-arginine-induced acute pancreatitis kunming mouse model assessed as reversal of L-arginine induced pancreatic injury by measuring total score at 8 mg/kg, ip pre-treated with L-arginine for 14 hrs followed by compound treatment and measured after 10 hrs by histologic scoring analysis (reference value: 6.25 +/- 0.96); assay type: functional
Mus musculus [30] = assay: Anti-inflammatory activity in L-arginine-induced acute pancreatitis kunming mouse model assessed as reversal of L-arginine induced pancreatic injury by measuring total score at 3 mg/kg, ip pre-treated with L-arginine for 14 hrs followed by compound treatment and measured after 10 hrs by histologic scoring analysis (reference value: 6.25 +/- 0.96); assay type: functional
[31] = Toxicity in LPS-induced C57BL/6 sepsis mouse model assessed as survival rate at 5 mg/kg, ip administered at 4 and 12 hrs post LPS-induction and measured after 28 hrs relative to control; assay type: organism-based; conditions: in vivo
[32] = Toxicity in LPS-induced C57BL/6 sepsis mouse model assessed as survival rate at 5 mg/kg, ip administered at 4 and 12 hrs post LPS-induction and measured after 35 hrs relative to control; assay type: organism-based; conditions: in vivo

CCC(=O)N1CCCN(C(=O)C2CCCN(Cc3ccc(NC(=O)N[C@@]45C[C@@H]6C[C@@](C)(C[C@@](C)(C6)C4)C5)c(F)c3)C2)CC1 (some centres not stated)
IC50 [1]: 0.14 nM | IC50 [2]: 0.05 nM | t1/2 [3]: 3.7 h | t1/2 [4]: 3.15 h | PPB [5]: 72.57% | Stability [6]: 81.12 µg/mL | Stability [7]: 74.76 µg/mL | Stability [8]: 68.78 µg/mL | Stability [9]: 75.04 µg/mL | Stability [10]: 66.63 µg/mL | Stability [11]: 62.01 µg/mL | Tmax [12]: 1.8 min | Cmax [13]: 3.77 nM | t1/2 [14]: 5.72 h | CL [15]: 0.29 L/h/kg | Vz [16]: 2.39 L/kg | AUC [17]: 6.13 nM·h | AUC [18]: 11.47 nM·h | Tmax [19]: 0.25 h | Cmax [20]: 2.92 nM | t1/2 [21]: 5.55 h | CL [22]: 1.7 L/h/kg | Vz [23]: 13.12 L/kg | AUC [24]: 6.39 nM·h | AUC [25]: 10.15 nM·h | F [26]: 20.85% | Activity [27]: Non-Toxic | Activity [28]: Non-Toxic | Activity (Mus musculus [29]): 3.5 | Activity (Mus musculus [30]): 4.25 | Activity [31]: 37.5% | Activity [32]: 12.5%

C[C@]12C[C@@H]3C[C@](C)(C1)C[C@@](NC(=O)Nc1ccc(CN4CCCN(C(=O)CC5CCN(CC(O)CO)CC5)CC4)cc1F)(C3)C2 (some centres not stated)
IC50 [1]: 1.25 nM | IC50 [2]: 58.1 nM

C=C(C)C(=O)N1CCC(CC(=O)N2CCCN(C(=O)c3ccc(NC(=O)N[C@@]45C[C@@H]6C[C@@](C)(C[C@@](C)(C6)C4)C5)cc3)CC2)CC1
IC50 [1]: 0.13 nM | IC50 [2]: 1 nM

C[C@]12C[C@@H]3C[C@](C)(C1)C[C@](NC(=O)Nc1ccc(C(=O)N4CCCC(C(=O)NCCO)C4)cc1F)(C3)C2 (some centres not stated)
IC50 [1]: 0.15 nM | IC50 [2]: 0.35 nM

C[C@]12C[C@@H]3C[C@](C)(C1)C[C@@](NC(=O)Nc1ccc(CN4CCCC(C(=O)N5CCCN(C(=O)C6CC6)CC5)C4)cc1F)(C3)C2 (some centres not stated)
IC50 [1]: 0.8 nM | IC50 [2]: 0.42 nM

CC(O)CNC(=O)C1CCN(C(=O)c2ccc(NC(=O)N[C@@]34C[C@@H]5C[C@@](C)(C[C@@](C)(C5)C3)C4)c(F)c2)CC1 (some centres not stated)
IC50 [1]: 0.18 nM | IC50 [2]: 4.5 nM

CCC(=O)N1CCCN(C(=O)C2CCCN(C(=O)c3ccc(NC(=O)N[C@@]45C[C@@H]6C[C@@](C)(C[C@@](C)(C6)C4)C5)c(F)c3)C2)CC1 (some centres not stated)
IC50 [1]: 0.58 nM | IC50 [2]: 0.56 nM

C[C@]12C[C@@H]3C[C@](C)(C1)C[C@@](NC(=O)Nc1ccc(C(=O)NC4CCC(C(=O)N(CCO)CCO)CC4)cc1F)(C3)C2 (some centres not stated)
IC50 [1]: 0.23 nM | IC50 [2]: 2.94 nM

C[C@]12C[C@@H]3C[C@](C)(C1)C[C@@](NC(=O)Nc1ccc(C(=O)NC4CCC(C(=O)N5CCC(CCO)CC5)CC4)cc1F)(C3)C2 (some centres not stated)
IC50 [1]: 0.53 nM | IC50 [2]: 16 nM

C[C@]12C[C@@H]3C[C@](C)(C1)C[C@@](NC(=O)Nc1ccc(CN4CCCC(C(N)=O)C4)cc1F)(C3)C2 (some centres not stated)
IC50 [1]: 0.09 nM | IC50 [2]: 0.14 nM

CC(=O)N1CCC(CC(=O)N2CCCN(Cc3ccc(NC(=O)N[C@@]45C[C@@H]6C[C@@](C)(C[C@@](C)(C6)C4)C5)c(F)c3)CC2)CC1
IC50 [1]: 0.11 nM | IC50 [2]: 0.49 nM

Source: ChEMBL document CHEMBL5380778, “Structure-Directed Discovery of Potent Soluble Epoxide Hydrolase Inhibitors for the Treatment of Inflammatory Diseases” (J Med Chem, 2023)
